Source: PubChem BioAssay (NCI)
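A five-concentration, 48-hour dose response in 96-well plates underlies each endpoint, interpolated linearly between surrounding concentrations. At the TGI there is no net growth.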

Columns and labels:
Experiment in all cases: NCI-60 cell line screen, 48 h
[1] = test system: HOP-92 NSCLC
[2] = test system: TK-10 renal
[3] = test system: HCT-15 colon
[4] = test system: HOP-62 NSCLC
[5] = test system: T-47D breast
[6] = test system: MDA-MB-435
[7] = test system: OVCAR-3 ovarian
[8] = test system: SF-539 CNS
[9] = test system: UACC-257 melanoma
[10] = test system: MALME-3M melanoma
[11] = test system: LOX IMVI melanoma
[12] = test system: RPMI-8226 leukemia
[13] = test system: OVCAR-4 ovarian
[14] = test system: SF-268 CNS
[15] = test system: ACHN renal
[16] = test system: COLO 205 colon
[17] = test system: IGROV1 ovarian
[18] = test system: MOLT-4 leukemia
[19] = test system: NCI-H226 lung
[20] = test system: CCRF-CEM leukemia
[21] = test system: SN12C renal
[22] = test system: SK-MEL-5 melanoma
[23] = test system: CAKI-1 renal
[24] = test system: BT-549 breast
[25] = test system: OVCAR-8 ovarian
[26] = test system: 786-0 renal
[27] = test system: MDA-N
[28] = test system: A549 NSCLC
[29] = test system: OVCAR-5 ovarian
[30] = test system: SK-OV-3 ovarian
[31] = test system: HCT-116 colon
[32] = test system: NCI-H23 lung
[33] = test system: SNB-19 CNS
[34] = test system: PC-3 prostate
[35] = test system: SK-MEL-28 melanoma
[36] = test system: MDA-MB-231 breast
[37] = test system: UACC-62 melanoma
[38] = test system: RXF 393 renal
[39] = test system: KM12 colon
[40] = test system: MCF7 breast
[41] = test system: HCC-2998 colon
[42] = test system: NCI/ADR-RES ovarian
[43] = test system: UO-31 renal
[44] = test system: DU-145 prostate
[45] = test system: EKVX NSCLC
[46] = test system: SNB-75 CNS
[47] = test system: HS 578T breast
[48] = test system: A498 renal
[49] = test system: SK-MEL-2 melanoma
[50] = test system: M14 melanoma
[51] = test system: SF-295 CNS
[52] = test system: NCI-H460 lung
[53] = test system: K-562 leukemia
[54] = test system: HL-60(TB) leukemia
[55] = test system: U251 CNS
[56] = test system: NCI-H522 lung
[57] = test system: HT29 colon
[58] = test system: SW-620 colon

SMILES: CCOC(=O)c1cc(NC(=O)N(CCC#N)CCN(C(=O)N[C@@H](Cc2ccccc2)C(=O)N[C@@H](CC(C)C)C(=O)NC)c2ccccc2)ccc1OC
- TGI [1]: 71 µM
- TGI [2]: > 100 µM
- TGI [3]: > 100 µM
- TGI [4]: > 100 µM
- TGI [5]: > 100 µM
- TGI [6]: > 100 µM
- TGI [7]: > 100 µM
- TGI [8]: 98.5 µM
- TGI [9]: 55 µM
- TGI [10]: 73.5 µM
- TGI [11]: 41.5 µM
- TGI [12]: 57.9 µM
- TGI [13]: > 100 µM
- TGI [14]: > 100 µM
- TGI [15]: > 100 µM
- TGI [16]: > 100 µM
- TGI [17]: > 100 µM
- TGI [18]: 82.1 µM
- TGI [19]: > 100 µM
- TGI [20]: > 100 µM
- TGI [21]: > 100 µM
- TGI [22]: > 100 µM
- TGI [23]: > 100 µM
- TGI [24]: 82.9 µM
- TGI [25]: > 100 µM
- TGI [26]: > 100 µM
- TGI [27]: > 100 µM
- TGI [28]: > 100 µM
- TGI [29]: > 100 µM
- TGI [30]: > 100 µM
- TGI [31]: > 100 µM
- TGI [32]: > 100 µM
- TGI [33]: > 100 µM
- TGI [34]: > 100 µM
- TGI [35]: > 100 µM
- TGI [36]: > 100 µM
- TGI [37]: 24.9 µM
- TGI [38]: 75.2 µM
- TGI [39]: > 100 µM
- TGI [40]: > 100 µM
- TGI [41]: > 100 µM
- TGI [42]: > 100 µM
- TGI [43]: > 100 µM
- TGI [44]: > 100 µM
- TGI [45]: > 100 µM
- TGI [46]: > 100 µM
- TGI [47]: > 100 µM
- TGI [48]: > 100 µM
- TGI [49]: > 100 µM
- TGI [50]: > 100 µM
- TGI [51]: > 100 µM

SMILES: COc1ccc2c(c1)c(=O)c1c(NCCN(C)C)ccc3c(=O)n(CCN(C)C)c(=O)n2c31
- TGI [1]: 0.791 µM
- TGI [2]: 3.45 µM
- TGI [3]: 2.62 µM
- TGI [4]: 1.78 µM
- TGI [5]: 5.77 µM
- TGI [6]: 0.538 µM
- TGI [7]: 2.11 µM
- TGI [52]: 1.46 µM
- TGI [9]: 0.804 µM
- TGI [10]: 1.02 µM
- TGI [11]: 1.22 µM
- TGI [12]: 0.3 µM
- TGI [13]: 1.7 µM
- TGI [14]: 2.13 µM
- TGI [53]: 0.0354 µM
- TGI [15]: 3.85 µM
- TGI [16]: 0.247 µM
- TGI [17]: 1.2 µM
- TGI [19]: 0.892 µM
- TGI [21]: 0.594 µM
- TGI [22]: 0.594 µM
- TGI [54]: 0.569 µM
- TGI [23]: 0.599 µM
- TGI [24]: 3.22 µM
- TGI [25]: 3.1 µM
- TGI [26]: 0.87 µM
- TGI [27]: 0.254 µM
- TGI [28]: 10.2 µM
- TGI [29]: 12.6 µM
- TGI [30]: 11.9 µM
- TGI [31]: 1.06 µM
- TGI [32]: 0.315 µM
- TGI [33]: 4.3 µM
- TGI [34]: 0.816 µM
- TGI [55]: 2.29 µM
- TGI [35]: 3.71 µM
- TGI [36]: 0.855 µM
- TGI [37]: 0.984 µM
- TGI [39]: 0.659 µM
- TGI [40]: 4.75 µM
- TGI [56]: 0.31 µM
- TGI [41]: 0.569 µM
- TGI [42]: 3.63 µM
- TGI [43]: 1.03 µM
- TGI [44]: 1.23 µM
- TGI [45]: 1.31 µM
- TGI [46]: 0.719 µM
- TGI [47]: 0.841 µM
- TGI [48]: 1.35 µM
- TGI [57]: 1.39 µM
- TGI [49]: 0.415 µM
- TGI [50]: 0.835 µM
- TGI [51]: 12 µM

SMILES: CC(=O)SSC1(Cl)C(C)(C)C(Cl)(SSC(C)=O)C1(C)C (configuration not stated)
- TGI [1]: > 100 µM
- TGI [2]: > 100 µM
- TGI [3]: > 100 µM
- TGI [4]: > 100 µM
- TGI [5]: 51.7 µM
- TGI [6]: > 100 µM
- TGI [7]: > 100 µM
- TGI [8]: 61.5 µM
- TGI [52]: 82.9 µM
- TGI [9]: > 100 µM
- TGI [10]: > 100 µM
- TGI [11]: > 100 µM
- TGI [13]: > 100 µM
- TGI [14]: > 100 µM
- TGI [15]: > 100 µM
- TGI [16]: > 100 µM
- TGI [17]: > 100 µM
- TGI [19]: > 100 µM
- TGI [20]: 60.2 µM
- TGI [21]: > 100 µM
- TGI [22]: > 100 µM
- TGI [23]: > 100 µM
- TGI [24]: > 100 µM
- TGI [25]: > 100 µM
- TGI [26]: > 100 µM
- TGI [27]: > 100 µM
- TGI [28]: > 100 µM
- TGI [29]: > 100 µM
- TGI [30]: > 100 µM
- TGI [31]: > 100 µM
- TGI [32]: > 100 µM
- TGI [33]: > 100 µM
- TGI [34]: > 100 µM
- TGI [55]: > 100 µM
- TGI [35]: > 100 µM
- TGI [36]: > 100 µM
- TGI [37]: > 100 µM
- TGI [38]: 48.5 µM
- TGI [39]: > 100 µM
- TGI [40]: > 100 µM
- TGI [56]: > 100 µM
- TGI [42]: > 100 µM
- TGI [43]: > 100 µM
- TGI [44]: > 100 µM
- TGI [45]: > 100 µM
- TGI [46]: 82.5 µM
- TGI [47]: > 100 µM
- TGI [48]: > 100 µM
- TGI [57]: > 100 µM
- TGI [49]: > 100 µM
- TGI [58]: > 100 µM
- TGI [50]: > 100 µM
- TGI [51]: > 100 µM
